Assay results taken from patent US20070129344A1, “Bicyclic 6-alkylidene-penem beta-lactamase inhibitors and beta-lactam antibiotic combination: a broad spectrum antibiotic” (priority 2005, published 2007).

Experiments:
[1] = target: class A β-lactamase TEM-1 (Escherichia coli, UniProt P62593); assay: β-Lactamase inhibition IC50 (nitrocefin, spectrophotometric); assay type: biochemical, E. coli; details: enzyme 4.3 nM, 10 min preincubation at 25° C.
Description: β-Lactamase inhibitory activity of the penem inhibitors was determined spectrophotometrically as described by Bush et al., [Bush, K., Macalintal, C., Rasmussen, B. A., Lee, V. and Yang, Y. Antimicrobial Agents and Chemotherapy 1993, 37, 851]. Homogeneously purified class A β-lactamases TEM-1 from E. coli and Imi-1 from Enterobacter cloacae, class B enzyme CcrA from Bacteroides fragilis and class C enzyme AmpC from Enterobacter cloacae were employed in the assay. The enzyme concentrations for TEM-1, Imi-1, CcrA and AmpC were 4.3, 7.1, 1.2 and 2.1 nM, respectively. A wide range of inhibitor concentrations were prepared in 50 mM PO4, pH 7.0 to include the possible IC50 values. The substrate used to initiate the enzyme reaction was nitrocefin at 50 μg/ml in the same buffer as the inhibitor. Initially the enzyme and inhibitor (20 μl each) were preincubated for 10 minutes at 25° C. prior to the addition of 160 μl volume of nitrocefin. Initial rates of hydrolysis were monitored for 5 minutes at 495 nm using a Molecular Devices Spectra Max 250 with kinetic protocol of SoftMax Program. Readings from the Spectra Max 250 were exported and transferred to Microsoft Excel. The percent of inhibition of each inhibitor concentration was calculated based on the control enzyme activity. The inhibitor concentration that caused a 50% reduction in the enzymatic activity (IC50) was determined graphically.

[2] = tested on: S. typhimurium GC 4198 SHV-1 CTX-M-5; assay: MIC microbroth dilution; β-lactamase class A, A (ESBL); assay type: cell-based; details: S. typhimurium GC 4198; Cefepime + 4 ug/ml Compound 1
How it was run: (§1)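 NCCLS microbroth dilution; MHBII; 35° C., ambient air, 18-22 hours.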

E. coli GC 2906 (Imi-1) = assay: MIC microbroth dilution; β-lactamase class A (Cb'ase); assay type: cell-based; details: Cefepime + 4 ug/ml Compound 1
Description: (§2) The in vitro activities of the antibiotics were determined by the microbroth dilution method as recommended by the National Committee for Clinical Laboratory Standards (NCCLS). (NCCLS. 2000. Methods for Dilution Antimicrobial Susceptibility Tests for Bacteria That Grow Aerobically; Approved Standards: M7-A5, vol. 19. National Committee for Clinical Laboratory Standards, Villanova, Pa.). Mueller-Hinton II broth (MHBII)(BBL Cockeysville, Md.), was used for the testing procedure. […]. The plates were incubated for 18-22 hours at 35° C. in ambient air.

[3] = tested on: E. coli GAR 5929 TEM, OXA, Act-1, CTX (By PCR only); assay: MIC microbroth dilution; β-lactamase class A, C, D; assay type: cell-based; details: Cefepime + 4 ug/ml Compound 1
Description: as §2

[4] = tested on: A. baumannii GC 6661 IMI-R; assay: MIC microbroth dilution; class PBP (penicillin binding protein); assay type: cell-based; details: Cefepime + 4 ug/ml Compound 1
Description: as §2

[5] = tested on: A. baumannii GC 6662 IMI-R; assay: as above; assay type: cell-based; details: Cefepime + 4 ug/ml Compound 1
Description: as §2

[6] = tested on: A. baumannii GC 6660 IMI-R; assay: as above; assay type: cell-based; details: Cefepime + 4 ug/ml Compound 1
Description: as §2

E. coli GC 2009 (TEM-10) = assay: MIC microbroth dilution; β-lactamase class A (ESBL); assay type: cell-based; details: E. coli GC 2009; Cefepime + 4 ug/ml Compound 1
How it was run: as §1

E. coli GC 2920 (IRT-2) = assay: MIC microbroth dilution; β-lactamase class A (IRT); assay type: cell-based; details: Cefepime + 4 ug/ml Compound 1
Description: as §2

[7] = tested on: A. baumannii GC 7692 TEM-1, AmpC; assay: MIC microbroth dilution; β-lactamase class A, C; assay type: cell-based; details: A. baumannii GC 7692; Cefepime + 4 ug/ml Compound 1
How it was run: as §1

[8] = tested on: E. coli GC 2295 TEM-1 + AmpC; assay: MIC microbroth dilution; β-lactamase class A, C; assay type: cell-based; details: E. coli GC 2295; Cefepime + 4 ug/ml Compound 1
How it was run: as §1

[9] = tested on: K. pneumoniae GC 7820 Act 1; assay: MIC microbroth dilution; β-lactamase class C; assay type: cell-based; details: K. pneumoniae GC 7820; Cefepime + 4 ug/ml Compound 1
How it was run: (§3)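 Following NCCLS standard M7-A5, antibiotics were tested by microbroth dilution in MHBII; plates sat 18-22 hours at 35° C. under ambient atmosphere.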

[10] = tested on: S. marcescens GC 4145 Inducible AmpC; assay: MIC microbroth dilution; β-lactamase class C; assay type: cell-based; details: Cefepime + 4 ug/ml Compound 1
How it was run: as §3

[11] = tested on: C. freundii GC 4164 Inducible AmpC; assay: MIC microbroth dilution; β-lactamase class C; assay type: cell-based; details: Cefepime + 4 ug/ml Compound 1
How it was run: as §3

[12] = tested on: E. cloacae GC 4142 (AmpC); assay: MIC microbroth dilution; β-lactamase class C; assay type: cell-based; details: Cefepime + 4 ug/ml Compound 1
How it was run: as §3

[13] = tested on: K. pneumoniae GC 7821 DHA 1; assay: MIC microbroth dilution; β-lactamase class C; assay type: cell-based; details: K. pneumoniae GC 7821; Cefepime + 4 ug/ml Compound 1
How it was run: as §3

[14] = tested on: P. aeruginosa GC 3153 Inducible AmpC; assay: MIC microbroth dilution; β-lactamase class C; assay type: cell-based; details: Cefepime + 4 ug/ml Compound 1
How it was run: as §3

[15] = tested on: E. aerogenes 1697-MP GC 7845 AmpC; assay: MIC microbroth dilution; β-lactamase class C; assay type: cell-based; details: E. aerogenes GC 7845; Cefepime + 4 ug/ml Compound 1
How it was run: as §3

[16] = tested on: K. pneumoniae GC 7823 Fox 5; assay: MIC microbroth dilution; β-lactamase class C; assay type: cell-based; details: K. pneumoniae GC 7823; Cefepime + 4 ug/ml Compound 1
How it was run: as §3

E. coli GC 2894 (AmpC) = assay: MIC microbroth dilution; β-lactamase class C; assay type: cell-based; details: Cefepime + 4 ug/ml Compound 1
How it was run: as §3

[17] = tested on: K. pneumoniae GC 7822 Act 1; assay: MIC microbroth dilution; β-lactamase class C; assay type: cell-based; details: Cefepime + 4 ug/ml Compound 1
How it was run: as §3

[18] = tested on: S. marcescens PT 696 Inducible AmpC; assay: MIC microbroth dilution; β-lactamase class C; assay type: cell-based; details: Cefepime + 4 ug/ml Compound 1
How it was run: as §3

[19] = tested on: A. baumannii GC 7687 AmpC; assay: MIC microbroth dilution; β-lactamase class C; assay type: cell-based; details: Cefepime + 4 ug/ml Compound 1
How it was run: as §3

[20] = tested on: E. cloacae GC 1712 AmpC-inducible; assay: MIC microbroth dilution; β-lactamase class C; assay type: cell-based; details: Cefepime + 4 ug/ml Compound 1
How it was run: as §3

[21] = tested on: A. baumannii PT 9444 PTZ-R; assay: MIC microbroth dilution; β-lactamase class not determined; assay type: cell-based; details: A. baumannii PT 9444; Cefepime + 4 ug/ml Compound 1
How it was run: as §1

[22] = tested on: S. maltophilia GC 1712 (L1); assay: MIC microbroth dilution; β-lactamase class B; assay type: cell-based; details: Cefepime + 4 ug/ml Compound 1
Description: as §2

Chain of class A β-lactamase TEM-1 (P62593 24-286 limits assumed): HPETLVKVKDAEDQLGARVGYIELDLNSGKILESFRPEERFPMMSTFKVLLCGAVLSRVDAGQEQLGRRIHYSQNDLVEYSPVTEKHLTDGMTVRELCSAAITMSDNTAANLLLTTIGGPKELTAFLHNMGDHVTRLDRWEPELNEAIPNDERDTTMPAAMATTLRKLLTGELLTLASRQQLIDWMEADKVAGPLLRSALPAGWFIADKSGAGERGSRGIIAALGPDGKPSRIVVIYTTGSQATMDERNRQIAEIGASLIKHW

`O=C([O-])C1=CS[C@@H]2/C(=C\c3cn4c(n3)CCC4)C(=O)N12.[Na+]` [Compound 1, (5R), (6Z)-6-(6,7-Dihydro-5H-pyrrolo[1,2-a]imidazol-2-ylmethylene)-7-oxo-4-thia-1-aza-bicyclo[3.2.0]hept-2-ene-2-carboxylic Acid, Sodium Salt] showed an IC50 [1] of 0.4 nM, an MIC [2] of 0.50 µg/mL and an MIC (E. coli GC 2906 (Imi-1)) of 0.06 µg/mL. The MIC [3] was 0.06 µg/mL, the MIC [4] was 16 µg/mL and the MIC [5] was over 16 µg/mL. For the same compound, the MIC [6] was over 16 µg/mL, the MIC (E. coli GC 2009 (TEM-10)) was 0.12 µg/mL and the MIC (E. coli GC 2920 (IRT-2)) was 0.06 µg/mL. The MIC [7] was over 16 µg/mL, the MIC [8] was 0.12 µg/mL and the MIC [9] was 0.25 µg/mL. It also gave an MIC [10] of 0.12 µg/mL, an MIC [11] of 0.06 µg/mL and an MIC [12] of 0.12 µg/mL. It also gave an MIC [13] of 0.03 µg/mL, an MIC [14] of 8 µg/mL and an MIC [15] of 0.06 µg/mL. For the same compound, the MIC [16] was 0.12 µg/mL, the MIC (E. coli GC 2894 (AmpC)) was 0.06 µg/mL and the MIC [17] was 0.50 µg/mL. It also gave an MIC [18] of 0.06 µg/mL, an MIC [19] of 16 µg/mL and an MIC [20] of 0.12 µg/mL. The MIC [21] was 16 µg/mL and the MIC [22] was 16 µg/mL.
